According to patent publication US11351095B2, “Stabilized emulsions with acidic agents” (Avon Products, Inc., priority 2018, dated 2022):

Assay: First normal stress difference of glycerin phases (AR-G2 rheometer)
Type: physicochemical
Experimental: The first normal stress difference of several glycerin phases (“Phase”) was measured prior to emulsification. A TA Instruments AR-G2 Rheometer was used to perform viscosity measurements for each of the phases A-E and a 100% glycerin phase using a 2 degree cone and plate geometry and a 52 micron gap. Measurements were taken at a shear stress of 100 Pa and 25° C. (77° F.).

- First Normal Stress Difference (N1 = 2 × Je × η^2 × γ^2, Pa) (glycerin phase prior to emulsification, shear stress of 100 Pa and 25° C., 2 degree cone and plate, 52 micron gap): 0 Pa
- extensional viscosity (inferred from first normal stress difference): no extensional viscosity
Compound: OCC(O)CO [Glycerin (100%), Glycerin]
